Earlier results, collected in PMC8796384, “Plasma protein binding prediction focusing on residue-level features and circularity of cyclic peptides by deep learning” (Bioinformatics, 2021).
Where two headings read alike, the source gives them in different places.

Legend:
plasma proteins [1] = tested on: plasma proteins
Excerpt: The external test (DrugBank) data contained some structurally similar pairs.

plasma proteins [2] = conditions: whole-peptide descriptor model trained on small molecules; ref Tajimi et al. (2018)
[3] = experimental %PPB, below 50% rounded to 50%, above 95% rounded to 95%, DrugBank dataset collected by Tajimi et al. (2018), ref Wishart et al., 2018

| Substance | %PPB50-95 (plasma proteins [1]; [3]) [%] | further results |
| --- | --- | --- |
| Anidulafungin | 84 | – |
| Caspofungin | 95 | – |
| Lanreotide | 81 | – |
| Pasireotide | – | %PPB50-95 (plasma proteins [1]): 88% |
| Micafungin | 95 | – |
| Polymyxin B | – | %PPB50-95 (plasma proteins [1]): 85.5% |
| daptomycin | – | predicted %PPB value by Tajimi (plasma proteins [2]): 49% |
